Data taken from patent US11780823B2, “Indazole-3-carboxamides and their use as Wnt/β-catenin signaling pathway inhibitors” (BioSplice Therapeutics, Inc., priority 2011, dated 2023).

Tested on: Wnt activity (wnt-responsive SP5 promoter luciferase reporter in SW480 cells)
Test: Wnt reporter screening assay: SP5 promoter-driven firefly luciferase in SW480 cells
Type: cell-based
Conditions: Homo sapiens; SW480 colon cancer cells with SP5 promoter luciferase reporter; half-log dilutions, ten micromolar top concentration; read 24-40 h after compound addition; normalized to DMSO; read-out: Wnt inhibition
Excerpt: Another screening assay for Wnt activity is described as follows. Reporter cell lines can be generated by stably transducing cells of cancer cell lines (e.g., colon cancer) with a lentiviral construct that include a wnt-responsive promoter driving expression of the firefly luciferase gene.
Lentiviral constructs can be made in which the SP5 promoter, a promoter having eight TCF/LEF binding sites derived from the SP5 promoter, is linked upstream of the firefly luciferase gene. The lentiviral constructs can also include a hygromycin resistance gene as a selectable marker. The SP5 promoter construct can be used to transduce SW480 cells, a colon cancer cell line having a mutated APC gene that generates a truncated APC protein, leading to de-regulated accumulation of β-catenin.
Cultured SW480 cells bearing a reporter construct can be distributed at approximately 10,000 cells per well into 96 well or 384 well plates. Compounds from a small molecule compound library can then be added to the wells in half-log dilutions using a ten micromolar top concentration. A series of control wells for each cell type receive only buffer and compound solvent. Twenty-four to forty hours after the addition of compound, reporter activity for luciferase can be assayed, for example, by addition of the BrightGlo luminescence reagent (Promega) and the Victor3 plate reader (Perkin Elmer). Readings can be normalized to DMSO only treated cells, and normalized activities can then be used in the IC50 calculations.

SMILES | IC50 [nM]
O=C(Nc1ccc2c(c1)OCO2)c1n[nH]c2ccc(-c3cncc(CN4CCCCC4)c3)cc12 [Compound 78, N-(Benzo[d][1,3]dioxol-5-yl)-5-(5-(piperidin-1-ylmethyl)pyridin-3-yl)-1H-indazole-3-carboxamide] | 239
O=C(Nc1ccc2c(c1)OCCO2)c1n[nH]c2ccc(-c3cncc(CN4CCCCC4)c3)cc12 [Compound 79, N-(2,3-Dihydrobenzo[b][1,4]dioxin-6-yl)-5-(5-(piperidin-1-ylmethyl)pyridin-3-yl)-1H-indazole-3-carboxamide] | 123
O=C(Nc1cncc(Cc2ccccc2)c1)c1n[nH]c2ccc(-c3cncc(CN4CCCCC4)c3)cc12 [Compound 80, N-(5-Benzylpyridin-3-yl)-5-(5-(piperidin-1-ylmethyl)pyridin-3-yl)-1H-indazole-3-carboxamide] | 158
O=C(Nc1cnccn1)c1n[nH]c2ccc(-c3cncc(CN4CCCCC4)c3)cc12 [Compound 81, 5-(5-(Piperidin-1-ylmethyl)pyridin-3-yl)-N-(pyrazin-2-yl)-1H-indazole-3-carboxamide] | 77 to 142
O=C(Nc1ccccc1)c1n[nH]c2ccc(-c3cncc(CN4CCCCC4)c3)cc12 [Compound 82, N-Phenyl-5-(5-(piperidin-1-ylmethyl)pyridin-3-yl)-1H-indazole-3-carboxamide] | 143 to 188
CN1CCN(C(=O)c2n[nH]c3ccc(-c4cncc(CN5CCCCC5)c4)cc23)CC1 [Compound 83, (4-Methylpiperazin-1-yl)(5-(5-(piperidin-1-ylmethyl)pyridin-3-yl)-1H-indazol-3-yl)methanone] | 2500 to 3400
C[C@@H]1CCC[C@H](C)N1Cc1cncc(-c2ccc3[nH]nc(C(=O)Nc4cccnc4)c3c2)c1 [Compound 84, 5-(5-(((2R,6S)-2,6-Dimethylpiperidin-1-yl)methyl)pyridin-3-yl)-N-(pyridin-3-yl)-1H-indazole-3-carboxamide] | 822 to 898
CN(C)Cc1cncc(NC(=O)c2n[nH]c3ccc(-c4cncc(CN5CCCCC5)c4)cc23)c1 [Compound 86, N-(5-((Dimethylamino)methyl)pyridin-3-yl)-5-(5-(piperidin-1-ylmethyl)pyridin-3-yl)-1H-indazole-3-carboxamide] | 66
CN1CCC(NC(=O)c2n[nH]c3ccc(-c4cncc(CN5CCCCC5)c4)cc23)CC1 [Compound 87, N-(1-Methylpiperidin-4-yl)-5-(5-(piperidin-1-ylmethyl)pyridin-3-yl)-1H-indazole-3-carboxamide] | 2440
CN(C)Cc1cncc(NC(=O)c2n[nH]c3ccc(-c4cncc(CN5CCCC5)c4)cc23)c1 [Compound 106, N-(5-((Dimethylamino)methyl)pyridin-3-yl)-5-(5-(pyrrolidin-1-ylmethyl)pyridin-3-yl)-1H-indazole-3-carboxamide] | 33
CN1CCN(Cc2cncc(NC(=O)c3n[nH]c4ccc(-c5cncc(CN6CCCCC6)c5)cc34)c2)CC1 [Compound 124, N-(5-((4-Methylpiperazin-1-yl)methyl)pyridin-3-yl)-5-(5-(piperidin-1-ylmethyl)pyridin-3-yl)-1H-indazole-3-carboxamide] | 67
O=C(Nc1ccc(N2CCCCC2)nc1)c1n[nH]c2ccc(-c3cncc(CN4CCCCC4)c3)cc12 [Compound 126, N-(6-(Piperidin-1-yl)pyridin-3-yl)-5-(5-(piperidin-1-ylmethyl)pyridin-3-yl)-1H-indazole-3-carboxamide] | 22
O=C(Nc1cccc(F)c1)c1n[nH]c2ccc(-c3cncc(CN4CCCCC4)c3)cc12 [Compound 162, N-(3-Fluorophenyl)-5-(5-(piperidin-1-ylmethyl)pyridin-3-yl)-1H-indazole-3-carboxamide] | 426
O=C(NC1CCOCC1)c1n[nH]c2ccc(-c3cncc(CN4CCCCC4)c3)cc12 [Compound 163, 5-(5-(Piperidin-1-ylmethyl)pyridin-3-yl)-N-(tetrahydro-2H-pyran-4-yl)-1H-indazole-3-carboxamide] | 15400
O=C(Nc1cncc(F)c1)c1n[nH]c2ccc(-c3cncc(CN4CCCCC4)c3)cc12 [Compound 168, N-(5-Fluoropyridin-3-yl)-5-(5-(piperidin-1-ylmethyl)pyridin-3-yl)-1H-indazole-3-carboxamide] | 66
O=C(Nc1ccc(N2CCC(O)CC2)nc1)c1n[nH]c2ccc(-c3cncc(CN4CCCCC4)c3)cc12 [Compound 169, N-(6-(4-Hydroxypiperidin-1-yl)pyridin-3-yl)-5-(5-(piperidin-1-ylmethyl)pyridin-3-yl)-1H-indazole-3-carboxamide] | 49
O=C(Nc1ccc(N2CCCC2)nc1)c1n[nH]c2ccc(-c3cncc(CN4CCC(O)CC4)c3)cc12 [Compound 170, 5-(5-((4-Hydroxypiperidin-1-yl)methyl)pyridin-3-yl)-N-(6-(pyrrolidin-1-yl)pyridin-3-yl)-1H-indazole-3-carboxamide] | 43
Cc1cc(NC(=O)c2n[nH]c3ccc(-c4cncc(CN5CCCCC5)c4)cc23)cnc1N1CCCC1 [Compound 172, N-(5-Methyl-6-(pyrrolidin-1-yl)pyridin-3-yl)-5-(5-(piperidin-1-ylmethyl)pyridin-3-yl)-1H-indazole-3-carboxamide] | 60
Cc1cc(NC(=O)c2n[nH]c3ccc(-c4cncc(CN5CCCCC5)c4)cc23)cnc1N1CCC1 [Compound 173, N-(6-(Azetidin-1-yl)-5-methylpyridin-3-yl)-5-(5-(piperidin-1-ylmethyl)pyridin-3-yl)-1H-indazole-3-carboxamide] | 36
O=C(Nc1ccc(N2CCC2)nc1)c1n[nH]c2ccc(-c3cncc(CN4CCCCC4)c3)cc12 [Compound 174, N-(6-(Azetidin-1-yl)pyridin-3-yl)-5-(5-(piperidin-1-ylmethyl)pyridin-3-yl)-1H-indazole-3-carboxamide] | 48
COc1ccc(NC(=O)c2n[nH]c3ccc(-c4cncc(CN5CCCCC5)c4)cc23)cn1 [Compound 175, N-(6-Methoxypyridin-3-yl)-5-(5-(piperidin-1-ylmethyl)pyridin-3-yl)-1H-indazole-3-carboxamide] | 25
Nc1ncc(NC(=O)c2n[nH]c3ccc(-c4cncc(CN5CCCCC5)c4)cc23)cn1 [Compound 176, N-(2-Aminopyrimidin-5-yl)-5-(5-(piperidin-1-ylmethyl)pyridin-3-yl)-1H-indazole-3-carboxamide] | 30
O=C(Nc1ccc(N2CCNCC2)nc1)c1n[nH]c2ccc(-c3cncc(CN4CCCCC4)c3)cc12 [Compound 177, N-(6-(Piperazin-1-yl)pyridin-3-yl)-5-(5-(piperidin-1-ylmethyl)pyridin-3-yl)-1H-indazole-3-carboxamide] | 183
O=C(Nc1ccc(O)nc1)c1n[nH]c2ccc(-c3cncc(CN4CCCCC4)c3)cc12 [Compound 178, N-(6-Hydroxypyridin-3-yl)-5-(5-(piperidin-1-ylmethyl)pyridin-3-yl)-1H-indazole-3-carboxamide] | 297
O=C(Nc1ccc(C(=O)N2CCCC2)nc1)c1n[nH]c2ccc(-c3cncc(CN4CCCCC4)c3)cc12 [Compound 179, 5-(5-(Piperidin-1-ylmethyl)pyridin-3-yl)-N-(6-(pyrrolidine-1-carbonyl)pyridin-3-yl)-1H-indazole-3-carboxamide] | 30
